In brackets after ≈: the same amount, converted by molar mass. Read-outs that look alike come from different tables or passages of the source.
Columns and labels:
[1] = test system: MRSA; details: cited from earlier work
[2] = test system: HepG2 cells; assay: XTT cytotoxicity assay; type: cell-based; details: Homo sapiens, HepG2, read-out: XTT IC50
[3] = test system: Bacteroides fragilis HM-709; assay: MIC against Bacteroides fragilis (gut bacteria); type: cell-based; details: HM709
[4] = test system: C. difficile ATCC 43255; type: cell-based, Clostridioides difficile
[5] = test system: C. difficile strains; assay: MIC (microdilution) against panel of 101 C. difficile strains; type: cell-based, Clostridioides difficile
[6] = test system: Lactobacillus reuteri HM-102; assay: MIC against Lactobacillus reuteri (gut bacteria); type: cell-based; details: Limosilactobacillus reuteri, HM102
[7] = test system: Corynebacterium spp. HM-784; assay: MIC against Corynebacterium spp. (gut bacteria); type: cell-based; details: SPP.HM784
[8] = test system: extended panel of Gram-positive bacteria; assay: MIC range over extended panel of Gram-positive bacteria; type: cell-based; details: other than C. difficile
[9] = C. difficile strains of Table 4

FC(F)(F)c1ccc(Oc2ccc(-c3noc(-c4ccc5[nH]ccc5c4)n3)cc2)cc1 [Compound 1]
efficacy in mouse models of MRSA infection [1]: efficacious

O=[N+]([O-])c1cnc(-c2nc(-c3ccc(OC4CCCC4)cc3)no2)[nH]1 [Compound 57, 3-(4-(Cyclopentyloxy)phenyl)-5-(4-nitro-1H-imidazol-2-yl)-1,2,4-oxadiazole]
IC50 [2]: 53.4 ± 4.5 µg/mL (≈ 156 µM)
MIC [3]: 128 µg/mL (≈ 375 µM)
passages after which MIC increased 2-fold ([4]; 2-fold MIC increase): 8 passages
passages after which MIC increased 4-fold ([4]; 4-fold MIC increase): 14 passages
passages after which MIC increased 8-fold ([4]; 8-fold MIC increase): 20 passages
increase in MIC on serial passage ([4]; whole serial passage experiment (30 passages)): 8 fold
IMIC50 (101 strains) ([5]; 101 C. difficile strains): 0.5 µg/mL
MIC50 [5, 9]: 0.5 µg/mL (≈ 1.46 µM)
MIC90 [5, 9]: 1 µg/mL (≈ 2.93 µM)
MIC ([5]; Clostridioides difficile, ATCC43598, strain ATCC43598): 0.5 µg/mL (≈ 1.46 µM)
MIC ([5]; Clostridioides difficile, BAA1801, strain BAA-1801): 0.25 µg/mL (≈ 0.732 µM)
MIC ([5]; Clostridioides difficile, BAA1804, strain BAA-1804): 0.125 µg/mL (≈ 0.366 µM)
MIC ([5]; Clostridioides difficile, BAA1812, strain BAA-1812): 0.125 µg/mL (≈ 0.366 µM)
MIC ([5]; Clostridioides difficile, BAA1814, strain BAA-1814): 0.125 µg/mL (≈ 0.366 µM)
MIC ([5]; Clostridioides difficile, BAA1870, strain BAA-1870): 0.125 µg/mL (≈ 0.366 µM)
MIC ([5]; Clostridioides difficile, C. difficile 24531, resistant to VAN): 0.125 µg/mL (≈ 0.366 µM)
MIC ([5]; Clostridioides difficile, C. difficile NR49292): 0.125 µg/mL (≈ 0.366 µM)
MIC ([5]; Clostridioides difficile, C. difficile NR49302): 0.25 µg/mL (≈ 0.732 µM)
MIC ([5]; Clostridioides difficile, C. difficile NR49305): 0.125 µg/mL (≈ 0.366 µM)
MIC ([5]; Clostridioides difficile, C. difficile NR49310): 0.25 µg/mL (≈ 0.732 µM)
MIC ([5]; Clostridioides difficile, strain HM-88): 1 µg/mL (≈ 2.93 µM)
MIC ([5]; Clostridioides difficile, strain HM-89): 0.5 µg/mL (≈ 1.46 µM)
MIC ([5]; Clostridioides difficile, strain HM-745): 0.5 µg/mL (≈ 1.46 µM)
MIC ([5]; Clostridioides difficile, strain HM-746): 0.5 µg/mL (≈ 1.46 µM)
MIC ([5]; Clostridioides difficile, strain HM-747): 0.25 µg/mL (≈ 0.732 µM)
MIC ([5]; Clostridioides difficile, strain NR49292): 0.125 µg/mL (≈ 0.366 µM)
MIC ([5]; Clostridioides difficile, strain NR49294): 0.5 µg/mL (≈ 1.46 µM)
MIC ([5]; Clostridioides difficile, strain NR49302): 0.25 µg/mL (≈ 0.732 µM)
MIC ([5]; Clostridioides difficile, strain NR49305): 0.125 µg/mL (≈ 0.366 µM)
MIC ([5]; Clostridioides difficile, strain NR49310): 0.25 µg/mL (≈ 0.732 µM)
MIC ([5]; Clostridioides difficile, strain NR49318): 0.5 µg/mL (≈ 1.46 µM)
MIC ([5]; Clostridioides difficile, strain NR-13427): 0.5 µg/mL (≈ 1.46 µM)
MIC ([5]; Clostridioides difficile, strain NR-13428): 0.5 µg/mL (≈ 1.46 µM)
MIC ([5]; Clostridioides difficile, strain NR-13429): 0.5 µg/mL (≈ 1.46 µM)
MIC ([5]; Clostridioides difficile, strain NR-13430): 0.5 µg/mL (≈ 1.46 µM)
MIC ([5]; Clostridioides difficile, strain NR-13431): 0.5 µg/mL (≈ 1.46 µM)
MIC ([5]; Clostridioides difficile, strain NR-13433): 1 µg/mL (≈ 2.93 µM)
MIC ([5]; Clostridioides difficile, strain NR-13434): 0.125 µg/mL (≈ 0.366 µM)
MIC ([5]; Clostridioides difficile, strain NR-13435): 0.5 µg/mL (≈ 1.46 µM)
MIC ([5]; Clostridioides difficile, strain NR-13436): 0.5 µg/mL (≈ 1.46 µM)
MIC ([5]; Clostridioides difficile, strain NR-13437): 0.5 µg/mL (≈ 1.46 µM)
MIC ([5]; Clostridioides difficile, strain NR-13438): 0.25 µg/mL (≈ 0.732 µM)
MIC ([5]; Clostridioides difficile, strain NR-13553): 0.125 µg/mL (≈ 0.366 µM)
MIC ([5]; Clostridioides difficile, strain NR-32882): 0.5 µg/mL (≈ 1.46 µM)
MIC ([5]; Clostridioides difficile, strain NR-32883): 0.5 µg/mL (≈ 1.46 µM)
MIC ([5]; Clostridioides difficile, strain NR-32884): 0.5 µg/mL (≈ 1.46 µM)
MIC ([5]; Clostridioides difficile, strain NR-32885): 0.5 µg/mL (≈ 1.46 µM)
MIC ([5]; Clostridioides difficile, strain NR-32886): 0.5 µg/mL (≈ 1.46 µM)
MIC ([5]; Clostridioides difficile, strain NR-32887): 1 µg/mL (≈ 2.93 µM)
MIC ([5]; Clostridioides difficile, strain NR-32888): 1 µg/mL (≈ 2.93 µM)
MIC ([5]; Clostridioides difficile, strain NR-32889): 1 µg/mL (≈ 2.93 µM)
MIC ([5]; Clostridioides difficile, strain NR-32890): 0.125 µg/mL (≈ 0.366 µM)
MIC ([5]; Clostridioides difficile, strain NR-32891): 0.5 µg/mL (≈ 1.46 µM)
MIC ([5]; Clostridioides difficile, strain NR-32892): 0.25 µg/mL (≈ 0.732 µM)
MIC ([5]; Clostridioides difficile, strain NR-32895): 0.25 µg/mL (≈ 0.732 µM)
MIC ([5]; Clostridioides difficile, strain NR-32896): 0.25 µg/mL (≈ 0.732 µM)
MIC ([5]; Clostridioides difficile, strain NR-32897): 0.25 µg/mL (≈ 0.732 µM)
MIC ([5]; Clostridioides difficile, strain NR-32900): 0.25 µg/mL (≈ 0.732 µM)
MIC ([5]; Clostridioides difficile, strain NR-32903): 0.25 µg/mL (≈ 0.732 µM)
MIC ([5]; Clostridioides difficile, strain NR-32904): 0.125 µg/mL (≈ 0.366 µM)
MIC ([5]; Clostridioides difficile, strain NR-49277): 0.5 µg/mL (≈ 1.46 µM)
MIC ([5]; Clostridioides difficile, strain NR-49278): 0.5 µg/mL (≈ 1.46 µM)
MIC ([5]; Clostridioides difficile, strain NR-49279): 0.5 µg/mL (≈ 1.46 µM)
MIC ([5]; Clostridioides difficile, strain NR-49280): 0.25 µg/mL (≈ 0.732 µM)
MIC ([5]; Clostridioides difficile, strain NR-49281): 0.25 µg/mL (≈ 0.732 µM)
MIC ([5]; Clostridioides difficile, strain NR-49282): 0.5 µg/mL (≈ 1.46 µM)
MIC ([5]; Clostridioides difficile, strain NR-49283): 0.5 µg/mL (≈ 1.46 µM)
MIC ([5]; Clostridioides difficile, strain NR-49284): 0.5 µg/mL (≈ 1.46 µM)
MIC ([5]; Clostridioides difficile, strain NR-49285): 0.5 µg/mL (≈ 1.46 µM)
MIC ([5]; Clostridioides difficile, strain NR-49286): 0.5 µg/mL (≈ 1.46 µM)
MIC ([5]; Clostridioides difficile, strain NR-49287): 0.25 µg/mL (≈ 0.732 µM)
MIC ([5]; Clostridioides difficile, strain NR-49288): 1 µg/mL (≈ 2.93 µM)
MIC ([5]; Clostridioides difficile, strain NR-49289): 1 µg/mL (≈ 2.93 µM)
MIC ([5]; Clostridioides difficile, strain NR-49290): 1 µg/mL (≈ 2.93 µM)
MIC ([5]; Clostridioides difficile, strain NR-49291): 1 µg/mL (≈ 2.93 µM)
MIC ([5]; Clostridioides difficile, strain NR-49293): 0.5 µg/mL (≈ 1.46 µM)
MIC ([5]; Clostridioides difficile, strain NR-49295): 1 µg/mL (≈ 2.93 µM)
MIC ([5]; Clostridioides difficile, strain NR-49296): 1 µg/mL (≈ 2.93 µM)
MIC ([5]; Clostridioides difficile, strain NR-49297): 1 µg/mL (≈ 2.93 µM)
MIC ([5]; Clostridioides difficile, strain NR-49298): 1 µg/mL (≈ 2.93 µM)
MIC ([5]; Clostridioides difficile, strain NR-49299): 1 µg/mL (≈ 2.93 µM)
MIC ([5]; Clostridioides difficile, strain NR-49300): 1 µg/mL (≈ 2.93 µM)
MIC ([5]; Clostridioides difficile, strain NR-49301): 0.5 µg/mL (≈ 1.46 µM)
MIC ([5]; Clostridioides difficile, strain NR-49303): 1 µg/mL (≈ 2.93 µM)
MIC ([5]; Clostridioides difficile, strain NR-49304): 1 µg/mL (≈ 2.93 µM)
MIC ([5]; Clostridioides difficile, strain NR-49306): 0.5 µg/mL (≈ 1.46 µM)
MIC ([5]; Clostridioides difficile, strain NR-49307): 0.5 µg/mL (≈ 1.46 µM)
MIC ([5]; Clostridioides difficile, strain NR-49308): 0.5 µg/mL (≈ 1.46 µM)
MIC ([5]; Clostridioides difficile, strain NR-49309): 0.5 µg/mL (≈ 1.46 µM)
MIC ([5]; Clostridioides difficile, strain NR-49311): 1 µg/mL (≈ 2.93 µM)
MIC ([5]; Clostridioides difficile, strain NR-49312): 0.5 µg/mL (≈ 1.46 µM)
MIC ([5]; Clostridioides difficile, strain NR-49313): 0.5 µg/mL (≈ 1.46 µM)
MIC ([5]; Clostridioides difficile, strain NR-49314): 0.5 µg/mL (≈ 1.46 µM)
MIC ([5]; Clostridioides difficile, strain NR-49315): 0.5 µg/mL (≈ 1.46 µM)
MIC ([5]; Clostridioides difficile, strain NR-49316): 1 µg/mL (≈ 2.93 µM)
MIC ([5]; Clostridioides difficile, strain NR-49317): 1 µg/mL (≈ 2.93 µM)
MIC ([5]; Clostridioides difficile, strain NR-49319): 0.25 µg/mL (≈ 0.732 µM)
MIC ([5]; Clostridioides difficile, strain NR-49320): 0.5 µg/mL (≈ 1.46 µM)
MIC ([5]; Clostridioides difficile, strain NR-49321): 1 µg/mL (≈ 2.93 µM)
MIC ([5]; Clostridioides difficile, strain NR-49323): 0.5 µg/mL (≈ 1.46 µM)
MIC ([5]; Clostridioides difficile, strain NR-49324): 1 µg/mL (≈ 2.93 µM)
MIC ([5]; Clostridioides difficile, strain NR-49325): 0.25 µg/mL (≈ 0.732 µM)
MIC ([5]; Clostridioides difficile, strain NR-49326): 0.5 µg/mL (≈ 1.46 µM)
MIC ([5]; Clostridioides difficile, strain NR-49327): 0.25 µg/mL (≈ 0.732 µM)
MIC ([5]; Clostridioides difficile, strain NR-49328): 2 µg/mL (≈ 5.86 µM)
MIC ([5]; Clostridioides difficile, strain NR-49329): 0.5 µg/mL (≈ 1.46 µM)
MIC ([5]; Clostridioides difficile, strain RMA23691): 1 µg/mL (≈ 2.93 µM)
MIC ([5]; Clostridioides difficile, strain RMA23828): 1 µg/mL (≈ 2.93 µM)
MIC ([5]; Clostridioides difficile, strain RMA24531): 0.125 µg/mL (≈ 0.366 µM)
MIC ([5]; Clostridioides difficile, strain RMA24923): 0.125 µg/mL (≈ 0.366 µM)
MIC ([5]; Clostridioides difficile, strain RMA26675): 2 µg/mL (≈ 5.86 µM)
MIC ([5]; Clostridioides difficile, strain RMA27081): 1 µg/mL (≈ 2.93 µM)
MIC ([5]; Clostridioides difficile, strain RMA27173): 2 µg/mL (≈ 5.86 µM)
MIC50 ([5]; Clostridioides difficile, 101 C. difficile strains, read-out: MIC50): 0.5 µg/mL (≈ 1.46 µM)
MIC90 ([5]; Clostridioides difficile, 101 C. difficile strains, read-out: MIC90): 1 µg/mL (≈ 2.93 µM)
MIC90 ([5]; Clostridioides difficile, 101 C. difficile strains, read-out: MIC90 (101 strains)): 1 µg/mL (≈ 2.93 µM)
MIC [6]: > 128 µg/mL
MIC [7]: > 128 µg/mL
activity against Gram-positive bacteria [8]: not active
